Test results from ChEMBL document CHEMBL1128778 (Bioorg Med Chem Lett, 1995).

Legend:
Mus musculus [1] = organism: Mus musculus; assay: Compound was evaluated for its effective dose in the oral mouse cholesterol biosynthesis assay.; format: functional
Squalene synthase = biological target: T1, Squalene synthase (Rattus norvegicus, UniProt Q02769); assay: Inhibitory activity against squalene synthase in rat liver; not active
T1 sequence (Q02769 whole entry): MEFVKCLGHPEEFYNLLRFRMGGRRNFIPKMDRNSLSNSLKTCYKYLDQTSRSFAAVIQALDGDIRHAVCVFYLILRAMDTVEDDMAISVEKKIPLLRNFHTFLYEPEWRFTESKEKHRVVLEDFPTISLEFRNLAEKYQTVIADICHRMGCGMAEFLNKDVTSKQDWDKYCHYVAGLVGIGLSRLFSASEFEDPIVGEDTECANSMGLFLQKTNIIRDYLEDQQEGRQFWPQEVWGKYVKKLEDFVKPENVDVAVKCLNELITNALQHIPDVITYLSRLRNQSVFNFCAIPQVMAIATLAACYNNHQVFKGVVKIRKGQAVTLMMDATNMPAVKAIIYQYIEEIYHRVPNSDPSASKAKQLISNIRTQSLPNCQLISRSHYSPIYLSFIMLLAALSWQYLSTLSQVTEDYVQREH

Mus musculus [2] = assay: Ability to inhibit mouse hepatic cholesterol biosynthesis when dosed orally at 24 mg/kg; format: functional; conditions: route oral
Mus musculus [3] = assay: Ability to inhibit mouse hepatic cholesterol biosynthesis when dosed orally at 6 mg/kg; format: functional; conditions: route oral
Rattus norvegicus = organism: Rattus norvegicus; assay: Dose required for inhibition of cholesterol biosynthesis in rats was determined; format: functional
Mus musculus [4] = assay: Ability to inhibit mouse hepatic cholesterol biosynthesis when dosed orally at 12 mg/kg; format: functional; conditions: route oral
[5] = Mus musculus, po, read-out: ED50

Compound | Ki (Squalene synthase) | ED50 (Mus musculus [1]; [5]) [mg/kg] | further results
C=CCOC(=O)C1OC2(CCC(=C)[C@@H](OC(C)=O)[C@H](C)Cc3ccccc3)OC(C(=O)O)([C@H](OC(=O)/C=C/[C@@H](C)C[C@@H](C)CC)[C@H]2O)C1(O)C(=O)OCOC(=O)C(C)(C)C (stereo partly drawn) | Not Active | 2 | 
C=C(CCC12OC(C(=O)NC(C)C)C(O)(C(=O)OCOC(=O)C(C)(C)C)C(C(=O)O)(O1)[C@H](OC(=O)/C=C/[C@@H](C)C[C@@H](C)CC)[C@H]2O)[C@@H](OC(C)=O)[C@H](C)Cc1ccccc1 (stereo partly drawn) |  |  | inhibition in vivo at 24 mg/kg (Mus musculus [2]): 41%
C=C(CCC12OC(C(=O)OCCCC)C(O)(C(=O)OCOC(=O)C(C)(C)C)C(C(=O)O)(O1)[C@H](OC(=O)/C=C/[C@@H](C)C[C@@H](C)CC)[C@H]2O)[C@@H](OC(C)=O)[C@H](C)Cc1ccccc1 (stereo partly drawn) | Not Active |  | inhibition in vivo at 6 mg/kg (Mus musculus [3]): 18%
C=C(CCC12OC(C(=O)O)C(O)(C(=O)O)C(C(=O)O)(O1)[C@H](OC(=O)/C=C/[C@@H](C)C[C@@H](C)CC)[C@H]2O)[C@@H](OC(C)=O)[C@H](C)Cc1ccccc1 (stereo partly drawn) [ZARAGOZIC ACID A] |  | 100 | 
C=C(CCC12OC(C(=O)OCCOC)C(O)(C(=O)OCOC(=O)C(C)(C)C)C(C(=O)O)(O1)[C@H](OC(=O)/C=C/[C@@H](C)C[C@@H](C)CC)[C@H]2O)[C@@H](OC(C)=O)[C@H](C)Cc1ccccc1 (stereo partly drawn) | Not Active |  | inhibition in vivo at 6 mg/kg (Mus musculus [3]): 18%
C=C(CCC12OC(C(=O)O)C(O)(C(=O)OCOC(=O)C(C)(C)C)C(C(=O)O)(O1)[C@H](OC(=O)/C=C/[C@@H](C)C[C@@H](C)CC)[C@H]2O)[C@@H](OC(C)=O)[C@H](C)Cc1ccccc1 (stereo partly drawn) |  |  | inhibition in vivo at 24 mg/kg (Mus musculus [2]): 0%
C=C(CCC12OC(C(=O)OCCC(C)C)C(O)(C(=O)OCOC(C)=O)C(C(=O)O)(O1)[C@H](OC(=O)/C=C/[C@@H](C)C[C@@H](C)CC)[C@H]2O)[C@@H](OC(C)=O)[C@H](C)Cc1ccccc1 (stereo partly drawn) |  | 6 | 
C=C(CCC12OC(C(=O)NCCOC)C(O)(C(=O)OCOC(=O)C(C)(C)C)C(C(=O)O)(O1)[C@H](OC(=O)/C=C/[C@@H](C)C[C@@H](C)CC)[C@H]2O)[C@@H](OC(C)=O)[C@H](C)Cc1ccccc1 (stereo partly drawn) | Not Active |  | inhibition in vivo at 12 mg/kg (Mus musculus [4]): 18%

The next lines start with results.

Ki (Squalene synthase) | Compound | ED50 (Mus musculus [1]; [5]) [mg/kg] | further results
Not Active | C=C(CCC12OC(C(=O)OCCC(C)C)C(O)(C(=O)OCOC(=O)C(C)(C)C)C(C(=O)O)(O1)[C@H](OC(=O)/C=C/[C@@H](C)C[C@@H](C)CC)[C@H]2O)[C@@H](OC(C)=O)[C@H](C)Cc1ccccc1 (stereo partly drawn) | 9 | ED50 (Mus musculus [1]): 9 mg/kg
Not Active | C=C(CCC12OC(C(=O)OC(C)C)C(O)(C(=O)OCOC(=O)C(C)(C)C)C(C(=O)O)(O1)[C@H](OC(=O)/C=C/[C@@H](C)C[C@@H](C)CC)[C@H]2O)[C@@H](OC(C)=O)[C@H](C)Cc1ccccc1 (stereo partly drawn) | 4 | 
Not Active | C=C(CCC12OC(C(=O)OCC(=O)OC(C)(C)C)C(O)(C(=O)OCOC(=O)C(C)(C)C)C(C(=O)O)(O1)[C@H](OC(=O)/C=C/[C@@H](C)C[C@@H](C)CC)[C@H]2O)[C@@H](OC(C)=O)[C@H](C)Cc1ccccc1 (stereo partly drawn) |  | inhibition in vivo at 24 mg/kg (Mus musculus [2]): 45%
Not Active | C=C(CCC12OC(C(=O)OC)C(O)(C(=O)OCOC(=O)C(C)(C)C)C(C(=O)O)(O1)[C@H](OC(=O)/C=C/[C@@H](C)C[C@@H](C)CC)[C@H]2O)[C@@H](OC(C)=O)[C@H](C)Cc1ccccc1 (stereo partly drawn) | 3.3 | 
Not Active | C=C(CCC12OC(C(=O)OCC(=O)OC)C(O)(C(=O)OCOC(=O)C(C)(C)C)C(C(=O)O)(O1)[C@H](OC(=O)/C=C/[C@@H](C)C[C@@H](C)CC)[C@H]2O)[C@@H](OC(C)=O)[C@H](C)Cc1ccccc1 (stereo partly drawn) |  | inhibition in vivo at 6 mg/kg (Mus musculus [3]): 0%
Not Active | C=C(CCC12OC(C(=O)OCCC)C(O)(C(=O)OCOC(=O)C(C)(C)C)C(C(=O)O)(O1)[C@H](OC(=O)/C=C/[C@@H](C)C[C@@H](C)CC)[C@H]2O)[C@@H](OC(C)=O)[C@H](C)Cc1ccccc1 (stereo partly drawn) | 2 | 
Not Active | C=C(CCC12OC(C(=O)OCC)C(O)(C(=O)OCOC(=O)C(C)(C)C)C(C(=O)O)(O1)[C@H](OC(=O)/C=C/[C@@H](C)C[C@@H](C)CC)[C@H]2O)[C@@H](OC(C)=O)[C@H](C)Cc1ccccc1 (stereo partly drawn) | 2.6 | ED50 (Rattus norvegicus): 18 mg/kg
